Experiments:
[1] = tested on: ER-stimulated ERE-regulated transcription in MCF-7 cells; experiment: Transient transfection dual-luciferase assay of ERE-regulated transcription in MCF-7 cells; assay type: cell-based, human; settings: 100 pM E2, 48 h, estrogen-free medium, ER-positive MCF-7 cells
Method: (A) MCF-7 and (B) BT-474 cells were co-transfected in parallel with the ERE(5×)-regulated and TATA dual-luciferase reporter gene sets along with ERRα1, ERRα1L413A/L418A, GRIP1 (glucocorticoid receptor interacting protein 1, SRC2) or empty parental expression plasmids as indicated. Transfected cells were incubated for 48 h in estrogen-free medium supplemented with ethanol, the solvent for the ligands, 100 pM E2, or 100 pM E2 plus 100 nM fulvestrant (ICI 182,780, faslodex) prior to being harvested for dual-luciferase assays. The results shown here are means±standard deviations from data obtained in one representative experiment performed in triplicate.
Plasmids pERE(5x)-ffLuc and pTATA-ffLuc, encoding firefly luciferase, and plasmid pTATA-srLuc, encoding renilla luciferase, were used as matched dual-luciferase reporter sets to assay ERE-regulated versus basal transcription along with an internal control. They were constructed by insertion via HindIII linkers of the nts −31 to +31 region of the herpes simplex virus thymidine kinase (HSV-TK) promoter into pGL3-Basic and phRG-B (Promega, Madison, Wis.), respectively. Plasmid pERE(5x)-ffLuc, containing five tandem copies of the consensus palindromic ERE, was then constructed by insertion into pTATA-fELuc of the oligodeoxynucleotides 5′-tcgag[…]gag[…]ctc[…] GACCTCTgcg[…]gcg[…]a-3′ (SEQ ID NO:1) and 5′-gatct[…]cgc[…]cgc[…] […]

[2] = tested on: phosphorylated Akt (p-Akt); experiment: Immunoblot analysis of phosphorylated versus total Akt in BT-474 cells; assay type: cell-based, human; settings: 48 h, 20 μg/ml trastuzumab, 1 μM gefitinib, 20 μM U0126 or 20 μM LY294002
Method: (§1) BT-474 cells were co-transfected in parallel with the ERE(5x)-regulated and TATA dual-luciferase reporter gene sets along with the indicated expression plasmids. […] In panel (B), the cells were incubated for 48 h in estrogen-free medium supplemented with dimethyl sulfoxide as the drug vehicle control, 20 μM U0126 (MEK inhibitor), or 20 μM LY294002 (PI3K inhibitor) as indicated. After incubation for 48 h, the cells were harvested for dual-luciferase assays. Data were analyzed as described in the legend to FIG. 2. (C) Immunoblot analysis of protein extracts (20 μg per sample) prepared from BT-474 cells treated as in panels A and B above for luciferase activity. The membrane was probed with antibodies that react specifically with ERRα. Reactive proteins were visualized by enhanced chemiluminescence and autoradiography. (D) Immunoblot analysis as in panel C above, only the membrane was probed with antibodies that react specifically with phosphorylated Akt (p-Akt), total Akt, phosphorylated MAPK (p-MAPK) or total MAPK.
(§2) Proteins were extracted in Cell Lysis Buffer (Cell Signaling Technology, Beverly, Mass.) supplemented with Protease Inhibitor Cocktail Set III and Phosphatase Inhibitor Cocktail Set II (Calbiochem). Protein amounts were quantified with Coomassie Protein Assay Reagent (Pierce Biotechnology) with BSA as the standard. […] In FIG. 5D, the membrane was probed sequentially with p44/42 MAPK polyclonal antibody, phospho-specific p44/42 MAPK (Thr202/Tyr204) monoclonal antibody E10, Akt polyclonal antibody, and phospho-specific Akt (Ser473) polyclonal antibody (Cell Signaling Technology). Reacting material was detected using horseradish peroxidase-conjugated secondary antibodies (Jackson ImmunoResearch Laboratories, West Grove, Pa.) together with enhanced chemiluminescence (Amersham Pharmacia) and autoradiography.

ERRα = experiment: Immunoblot analysis of ERRα expression in ERRα-transfected BT-474 cells; assay type: cell-based, human; settings: BT-474 cells transfected with ERRα, 48 h; 20 μg/ml trastuzumab, 1 μM gefitinib, 20 μM U0126 or 20 μM LY294002
Method: as §1, §2

[3] = tested on: phosphorylated MAPK (p-MAPK); experiment: Immunoblot analysis of phosphorylated versus total MAPK in BT-474 cells; assay type: cell-based, human; settings: 48 h, 20 μg/ml trastuzumab, 1 μM gefitinib, 20 μM U0126 or 20 μM LY294002
Method: as §1, §2

[4] = tested on: GST-β-globin 1-123 fusion protein [GST: P08515]
[5] = target: T1, GST-ERRα1 1-423 (full-length GST-ERRα1 fusion protein) (UniProt P11474)
T1 sequence: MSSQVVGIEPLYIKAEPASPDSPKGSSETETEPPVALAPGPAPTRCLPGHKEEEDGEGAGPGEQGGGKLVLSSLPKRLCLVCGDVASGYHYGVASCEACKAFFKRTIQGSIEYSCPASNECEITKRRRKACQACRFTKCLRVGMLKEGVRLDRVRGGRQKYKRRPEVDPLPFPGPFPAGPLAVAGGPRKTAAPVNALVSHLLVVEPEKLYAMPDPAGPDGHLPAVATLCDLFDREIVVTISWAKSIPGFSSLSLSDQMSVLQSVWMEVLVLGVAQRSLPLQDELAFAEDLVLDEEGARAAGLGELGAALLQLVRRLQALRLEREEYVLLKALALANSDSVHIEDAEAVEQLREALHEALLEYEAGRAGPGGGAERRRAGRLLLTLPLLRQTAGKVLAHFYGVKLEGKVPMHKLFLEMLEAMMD

[6] = tested on: PHAS-1 (phosphorylated heat and acid-stable protein regulated by insulin)
[7] = target: T2, GST-ERRα1 1-376 (truncated GST-ERRα1 fusion protein) (UniProt P11474)
T2 sequence: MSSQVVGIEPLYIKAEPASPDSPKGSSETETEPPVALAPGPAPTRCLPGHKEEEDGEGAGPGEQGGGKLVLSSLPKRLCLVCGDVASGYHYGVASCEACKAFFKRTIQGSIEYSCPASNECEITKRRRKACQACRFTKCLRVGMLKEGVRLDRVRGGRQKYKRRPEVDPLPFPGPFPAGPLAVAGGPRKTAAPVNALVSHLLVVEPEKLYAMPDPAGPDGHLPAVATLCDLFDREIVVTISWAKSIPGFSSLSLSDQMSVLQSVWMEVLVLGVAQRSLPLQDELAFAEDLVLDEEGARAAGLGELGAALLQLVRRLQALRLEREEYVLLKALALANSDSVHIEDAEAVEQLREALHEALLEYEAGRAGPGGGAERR

[8] = target: T3, GST-ERRα1 1-173 (truncated GST-ERRα1 fusion protein) (UniProt P11474)
T3 sequence: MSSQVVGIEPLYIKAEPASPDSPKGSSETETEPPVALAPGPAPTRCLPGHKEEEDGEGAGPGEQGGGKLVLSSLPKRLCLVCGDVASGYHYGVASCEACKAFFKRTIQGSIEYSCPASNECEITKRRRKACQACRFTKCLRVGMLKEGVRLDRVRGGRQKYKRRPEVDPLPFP

[9] = tested on: ERRα1-mediated constitutive activation of ERE-regulated transcription in BT-474 cells; experiment: Transient transfection dual-luciferase assay of ERRα1-mediated ERE-regulated transcription in BT-474 cells; assay type: cell-based, human
Method: as §1

[10] = target: Human ERRα1 containing a C-terminal 6×His tag, expressed and purified from E. coli, P11474

Sequence of GST-β-globin 1-123 fusion protein [GST: P08515] (P08515 whole entry, looked up, the tested form may be a part): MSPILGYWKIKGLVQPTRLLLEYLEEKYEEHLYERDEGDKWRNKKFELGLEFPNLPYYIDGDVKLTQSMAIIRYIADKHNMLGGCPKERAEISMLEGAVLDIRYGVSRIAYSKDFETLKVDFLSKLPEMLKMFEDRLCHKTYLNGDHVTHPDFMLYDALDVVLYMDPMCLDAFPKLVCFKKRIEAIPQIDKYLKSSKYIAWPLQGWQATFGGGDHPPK

C[C@]12CC[C@@H]3c4ccc(O)cc4CC[C@H]3[C@@H]1CC[C@@H]2O [E2, 17β-estradiol]
induction of ERE-regulated transcription [1]: 19 fold

O=c1cc(N2CCOCC2)oc2c(-c3ccccc3)cccc12 [LY294002, 2-(4-morpholinyl)-8-phenyl-4H-1-benzopyran-4-one]
phosphorylation of Akt / PI3K/Akt pathway activation (immunoblot) [2]: inhibition of phosphorylation of Akt
ERRα expression (immunoblot) (ERRα): still expressed
phosphorylation of MAPK / MEK/MAPK pathway activation (immunoblot) [3]: without affecting MAPK status

rat p42 MAPK2 (ERK2; Calbiochem) phosphorylated in vitro by a constitutively active MEK1 mutant
in vitro phosphorylation with [γ32P]-ATP, 12% SDS-PAGE and PhosphorImager [4]: activated MAPK efficiently phosphorylated PHAS-1, but not GST-β-globin1-123
in vitro phosphorylation with [γ32P]-ATP, 12% SDS-PAGE and PhosphorImager [5]: MAPK phosphorylated each of the GST-ERRα1 fusion proteins, with more label being incorporated into GST-ERRα11-423 than into GST-ERRα11-376 and GST-ERRα11-173
in vitro phosphorylation with [γ32P]-ATP, 12% SDS-PAGE and PhosphorImager [6]: activated MAPK efficiently phosphorylated PHAS-1, but not GST-β-globin1-123
in vitro phosphorylation with [γ32P]-ATP, 12% SDS-PAGE and PhosphorImager [7]: MAPK phosphorylated each of the GST-ERRα1 fusion proteins, with more label being incorporated into GST-ERRα11-423 than into GST-ERRα11-376 and GST-ERRα11-173
in vitro phosphorylation with [γ32P]-ATP, 12% SDS-PAGE and PhosphorImager [8]: MAPK phosphorylated each of the GST-ERRα1 fusion proteins, with more label being incorporated into GST-ERRα11-423 than into GST-ERRα11-376 and GST-ERRα11-173

N#CC(=C(/N)Sc1ccccc1N)/C(C#N)=C(\N)Sc1ccccc1N [U0126]
reduction in ERRα1's activator activity [9]: approximately 50%
phosphorylation of Akt / PI3K/Akt pathway activation (immunoblot) [2]: without affecting Akt status
ERRα expression (immunoblot) (ERRα): still expressed
phosphorylation of MAPK / MEK/MAPK pathway activation (immunoblot) [3]: inhibition of phosphorylation of MAPK

B1: Human Akt2 containing an N-terminal 6×His tag, lacking amino acids 1-117 (Pleckstrin Homology domain), serine 474 mutated to aspartic acid (protein)
chain: HHHHHHDPMDYKCGSPSDSSTTEEMEVAVSKARAKVTMNDFDYLKLLGKGTFGKVILVREKATGRYYAMKILRKEVIIAKDEVAHTVTESRVLQNTRHPFLTALKYAFQTHDRLCFVMEYANGGELFFHLSRERVFTEERARFYGAEIVSALEYLHSRDVVYRDIKLENLMLDKDGHIKITDFGLCKEGISDGATMKTFCGTPEYLAPEVLEDNDYGRAVDWWGLGVVMYEMMCGRLPFYNQDHERLFELILMEEIRFPRTLSPEAKSLLAGLLKKDPKQRLGGGPSDAKEVMEHRFFLSINWQDVVQKKLLPPFKPQVTSEVDTRYFDDEFTAQSITITPPDRYDSLGLLELDQRTHFPQFDYSASIRE
in vitro phosphorylation with [γ-32P]-ATP, SDS-(4-12%) PAGE and autoradiography [10]: Each of the kinases tested was capable of phosphorylating ERRα in vitro

B2: Human MAPK1 containing an N-terminal GST tag, activated with MEK1 (protein)
chain: MAAAAAQGGGGGEPRRTEGVGPGVPGEVEMVKGQPFDVGPRYTQLQYIGEGAYGMVSSAYDHVRKTRVAIKKISPFEHQTYCQRTLREIQILLRFRHENVIGIRDILRASTLEAMRDVYIVQDLMETDLYKLLKSQQLSNDHICYFLYQILRGLKYIHSANVLHRDLKPSNLLINTTCDLKICDFGLARIADPEHDHTGFLTEYVATRWYRAPEIMLNSKGYTKSIDIWSVGCILAEMLSNRPIFPGKHYLDQLNHILGILGSPSQEDLNCIINMKARNYLQSLPSKTKVAWAKLFPKSDSKALDLLDRMLTFNPNKRITVEEALAHPYLEQYYDPTDEPVAEEPFTFAMELDDLPKERLKELIFQETARFQPGVLEAP
in vitro phosphorylation with [γ-32P]-ATP, SDS-(4-12%) PAGE and autoradiography [10]: Each of the kinases tested was capable of phosphorylating ERRα in vitro

B3: Human Akt1 containing an N-terminal 6×His tag, lacking amino acids 1-117 (Pleckstrin Homology domain), serine 473 mutated to aspartic acid (protein)
chain: HHHHHHMDFRSGSPSDNSGAEEMEVSLAKPKHRVTMNEFEYLKLLGKGTFGKVILVKEKATGRYYAMKILKKEVIVAKDEVAHTLTENRVLQNSRHPFLTALKYSFQTHDRLCFVMEYANGGELFFHLSRERVFSEDRARFYGAEIVSALDYLHSEKNVVYRDLKLENLMLDKDGHIKITDFGLCKEGIKDGATMKTFCGTPEYLAPEVLEDNDYGRAVDWWGLGVVMYEMMCGRLPFYNQDHEKLFELILMEEIRFPRTLGPEAKSLLSGLLKKDPKQRLGGGSEDAKEIMQHRFFAGIVWQHVYEKKLSPPFKPQVTSETDTRYFDEEFTAQMITITPPDQDDSMECVDSERRPHFPQFDYSASGTA
in vitro phosphorylation with [γ-32P]-ATP, SDS-(4-12%) PAGE and autoradiography [10]: Each of the kinases tested was capable of phosphorylating ERRα in vitro
